Converted amounts (≈) assume the structure as drawn. The source made the active and inactive calls. No cut-off for these calls is given here. Square brackets hold non-standard residues; d marks the D form. Peptide text beside a SMILES is read from it. * marks the point of attachment. X1 = N=C(N)NCCC[C@H](CN)C(=O)*; β3hK = NCCCC[C@H](N)CC(=O)O
Tests used:
[1] = Metabolic stability in human serum at 10 mg/ml at 37 degC after 2 hrs by HPLC analysis; type: ADME
[2] = Aqueous solubility of compound in 50 mM sodium succinate buffer at >1 mM at pH 5 by 1D 1H NMR spectroscopic analysis; type: physicochemical
[3] = Induction of programmed cell death in human MEC1 cells at 200 uM after 2 hrs by Annexin-V/propidium iodide staining based FACS analysis; type: functional
[4] = Induction of programmed cell death in human MEC1 cells at 50 uM after 2 hrs by Annexin-V/propidium iodide staining based FACS analysis; type: functional
A549 [5] = assay: Induction of apoptosis in human A549 cells assessed as early apoptotic cells at 200 uM after 2 hrs by Annexin-V/propidium iodide staining based FACS analysis (reference value: 2%); type: functional
A549 [6] = assay: Induction of apoptosis in human A549 cells assessed as late apoptotic cells at 200 uM after 2 hrs by Annexin-V/propidium iodide staining based FACS analysis (reference value: 5%); type: functional
MCF7 [7] = assay: Induction of apoptosis in human MCF7 cells assessed as early apoptotic cells at 200 uM after 2 hrs by Annexin-V/propidium iodide staining based FACS analysis (reference value: 4%); type: functional
MCF7 [8] = assay: Induction of apoptosis in human MCF7 cells assessed as late apoptotic cells at 200 uM after 2 hrs by Annexin-V/propidium iodide staining based FACS analysis (reference value: 22%); type: functional
HCT-116 [9] = assay: Induction of apoptosis in human HCT116 cells assessed as early apoptotic cells at 200 uM after 2 hrs by Annexin-V/propidium iodide staining based FACS analysis (reference value: 4%); type: functional
HCT-116 [10] = assay: Induction of apoptosis in human HCT116 cells assessed as late apoptotic cells at 200 uM after 2 hrs by Annexin-V/propidium iodide staining based FACS analysis (reference value: 5%); type: functional
[11] = Induction of programmed cell death in human A549 cells at 50 uM after 2 hrs by Annexin-V/propidium iodide staining based FACS analysis; type: functional
[12] = Induction of programmed cell death in human HCT116 cells at 50 uM after 2 hrs by Annexin-V/propidium iodide staining based FACS analysis; type: functional, HCT-116
[13] = Induction of programmed cell death in human HCT116 cells at 200 uM after 2 hrs by Annexin-V/propidium iodide staining based FACS analysis; type: functional, HCT-116
A549 [14] = assay: Induction of programmed cell death in human A549 cells after 2 hrs by Annexin-V/propidium iodide staining based FACS analysis; type: functional
HCT-116 [15] = assay: Induction of programmed cell death in human HCT116 cells after 2 hrs by Annexin-V/propidium iodide staining based FACS analysis; type: functional
MCF7 [16] = assay: Induction of programmed cell death in human MCF7 cells after 2 hrs by Annexin-V/propidium iodide staining based FACS analysis; type: functional
[17] = Drug degradation in human serum at 10 mg/ml after 2 hrs by HPLC analysis; type: ADME
[18] = Aqueous solubility of compound in 50 mM sodium succinate buffer at 2 mM at pH 5 by 1D 1H NMR spectroscopic analysis; type: physicochemical
[19] = Induction of cell death in human Jurkat cells at 300 uM after 2 hrs by Annexin-V/propidium iodide staining based FACS analysis; type: functional
[20] = Induction of cell death in human CEM cells at 300 uM after 2 hrs by Annexin-V/propidium iodide staining based FACS analysis; type: functional, CCRF-CEM
[21] = Induction of cell death in human MDA-MB-231 cells at 300 uM after 2 hrs by Annexin-V/propidium iodide staining based FACS analysis; type: functional
[22] = Induction of cell death in human MCF7 cells at 300 uM after 2 hrs by Annexin-V/propidium iodide staining based FACS analysis; type: functional
[23] = Induction of cell death in human AU565 cells at 300 uM after 2 hrs by Annexin-V/propidium iodide staining based FACS analysis; type: functional
[24] = Induction of cell death in human HBL100 cells at 300 uM after 2 hrs by Annexin-V/propidium iodide staining based FACS analysis; type: functional, HBL-100
[25] = Induction of cell death in human Raji cells at 300 uM after 2 hrs by Annexin-V/propidium iodide staining based FACS analysis; type: functional
[26] = Induction of cell death in human Ramos cells at 300 uM after 2 hrs by Annexin-V/propidium iodide staining based FACS analysis; type: functional
[27] = Induction of cell death in human RPMI8226 cells at 300 uM after 2 hrs by Annexin-V/propidium iodide staining based FACS analysis; type: functional, RPMI-8226
[28] = Induction of cell death in human RPMI8866 cells at 300 uM after 2 hrs by Annexin-V/propidium iodide staining based FACS analysis; type: functional, RPMI-8866
[29] = Induction of cell death in human HeLa cells at 300 uM after 2 hrs by Annexin-V/propidium iodide staining based FACS analysis; type: functional
[30] = Induction of cell death in human MEC1 cells at 300 uM after 2 hrs by Annexin-V/propidium iodide staining based FACS analysis; type: functional
CLL [31] = assay: Induction of programmed cell death in human CLL cells harboring TP53 17p deletion mutant at 50 to 400 uM after 2 hrs by Annexin-V/propidium iodide staining based FACS analysis; type: functional
CLL [32] = assay: Induction of programmed cell death in human CLL cells harboring ATM 11q deletion mutant at 50 to 400 uM after 2 hrs by Annexin-V/propidium iodide staining based FACS analysis; type: functional
[33] = Induction of cell death in human U937 cells at 300 uM after 2 hrs by Annexin-V/propidium iodide staining based FACS analysis; type: functional, U-937
[34] = Induction of cell death in human JM1 cells at 300 uM after 2 hrs by Annexin-V/propidium iodide staining based FACS analysis; type: functional
[35] = Induction of cell death in human OVCAR10 cells at 300 uM after 2 hrs by Annexin-V/propidium iodide staining based FACS analysis; type: functional
[36] = Induction of cell death in human A549 cells at 300 uM after 2 hrs by Annexin-V/propidium iodide staining based FACS analysis; type: functional
[37] = Induction of cell death in human LNCAP cells at 300 uM after 2 hrs by Annexin-V/propidium iodide staining based FACS analysis; type: functional
[38] = Cytotoxicity against human B lymphocytes assessed as cell death at 50 to 400 uM after 2 hrs by Annexin-V/propidium iodide staining based FACS analysis; type: toxicity
CLL [39] = assay: Induction of programmed cell death in human CLL cells at 50 to 400 uM after 2 hrs by Annexin-V/propidium iodide staining based FACS analysis; type: functional
[40] = Drug degradation in human serum up to 5 mins by HPLC analysis; type: ADME

For `CSCC[C@H](NC(=O)[C@@H](NC(=O)[C@@H](NC(=O)[C@H](Cc1ccc(O)cc1)NC(=O)[C@H](Cc1ccccc1)NC(=O)[C@H](CCCNC(=N)N)NC(=O)[C@H](N)CCCCN)C(C)C)C(C)C)C(=O)N[C@@H](Cc1c[nH]c2ccccc12)C(=O)N[C@@H](CCCCN)C(=O)N[C@H](CCCCN)C(=O)O`, the Stability [1] was “Stable”, the solubility [2] was “Soluble” and the Activity [3] was 63%. For the same molecule, the Activity [4] was 25%, the Activity (A549 [5]) was 5% and the Activity (A549 [6]) was 60%. It also gave an Activity (MCF7 [7]) of 6%, an Activity (MCF7 [8]) of 52% and an Activity (HCT-116 [9]) of 4%. The Activity (HCT-116 [10]) was 77%, the Activity [11] was 25% and the Activity [12] was 38%. The Activity [13] was 80%, the Activity (A549 [14]) was “Dose-dependent effect” and the Activity (HCT-116 [15]) was “Dose-dependent effect”. The Activity (MCF7 [16]) was “Dose-dependent effect”.
For `CSCC[C@H](NC(=O)[C@@H](NC(=O)[C@@H](NC(=O)[C@H](Cc1ccc(O)cc1)NC(=O)[C@H](Cc1ccccc1)NC(=O)[C@H](CCCNC(=N)N)NC(=O)[C@H](N)CCCCN)C(C)C)C(C)C)C(=O)N[C@@H](Cc1c[nH]c2ccccc12)C(=O)N[C@@H](C)C(=O)N[C@H](CCCCN)C(=O)O` (H-[dK]RFYVVMWA[dK]-OH), the Activity [3] was 46%.
For `CC(C)[C@H](NC(=O)[C@H](Cc1ccc(O)cc1)NC(=O)[C@H](Cc1ccccc1)NC(=O)[C@H](CCCNC(=N)N)NC(=O)[C@H](N)CCCCN)C(=O)N[C@H](C(=O)N[C@@H](C)C(=O)N[C@@H](Cc1c[nH]c2ccccc12)C(=O)N[C@@H](CCCCN)C(=O)N[C@H](CCCCN)C(=O)O)C(C)C` (H-[dK]RFYVVAWK[dK]-OH), the Activity [3] was 6%.
In the case of Ac-KRFYVVMWKK-NH2, the Stability [17] is reported as “Unstable”, the solubility [2] is reported as “Soluble” and the Activity [3] is reported as 30%.
`CSCC[C@H](NC(=O)[C@@H](NC(=O)[C@@H](NC(=O)[C@H](Cc1ccc(O)cc1)NC(=O)[C@H](Cc1ccccc1)NC(=O)[C@@H](N)CCCNC(=N)N)C(C)C)C(C)C)C(=O)N[C@@H](Cc1c[nH]c2ccccc12)C(=O)N[C@@H](CCCCN)C(=O)O` gave a solubility at 2000 µM ([18]; 50 mM sodium succinate buffer, pH 5) of 30 µM (≈ 33.9 µg/mL) and an Activity [3] of 13%.
For `CSCC[C@H](NC(=O)[C@@H](NC(=O)[C@@H](NC(=O)[C@H](Cc1ccc(O)cc1)NC(=O)[C@H](Cc1ccccc1)NC(=O)[C@H](CCCNC(=N)N)NC(=O)[C@@H](N)CCCCN)C(C)C)C(C)C)C(=O)N[C@@H](Cc1c[nH]c2ccccc12)C(=O)N[C@@H](CCCCN)C(=O)N[C@@H](CCCCN)C(=O)O`, the Activity [19] was 30%, the Activity [20] was 30% and the Activity [21] was 30%. It also gave an Activity [22] of 30%, an Activity [23] of 30% and an Activity [24] of 30%. The Activity [25] was 30%, the Activity [26] was 30% and the Activity [27] was 30%. It also gave an Activity [28] of 30%, an Activity [29] of 30% and an Activity [30] of 30%. For the same molecule, the Activity (CLL [31]) was “Active”, the Activity (CLL [32]) was “Active” and the Activity [33] was 30%. The Activity [34] was 30%, the Activity [35] was 30% and the Activity [36] was 30%. For the same molecule, the Activity [37] was 30%, the Activity [38] was “Non-Toxic” and the Activity (CLL [39]) was “Active”. The Stability [40] was “Unstable”, the solubility [2] was “Soluble” and the Activity [3] was 23%.
In the case of `CSCC[C@H](NC(=O)[C@@H](NC(=O)[C@@H](NC(=O)[C@H](Cc1ccc(O)cc1)NC(=O)[C@H](Cc1ccccc1)NC(=O)[C@@H](CN)CCCNC(=N)N)C(C)C)C(C)C)C(=O)N[C@@H](Cc1c[nH]c2ccccc12)C(=O)N[C@@H](CCCCN)CC(=O)O` (X1-FYVVMW[β3hK]-OH), the Stability [1] is reported as “Stable” and the solubility ([18]; buffer, pH 5, 2000 µM) is reported as “Insoluble”.
Molecule `CSCC[C@H](NC(=O)[C@@H](NC(=O)[C@@H](NC(=O)[C@H](Cc1ccc(O)cc1)NC(=O)[C@H](Cc1ccccc1)NC(=O)[C@H](C)NC(=O)[C@H](N)CCCCN)C(C)C)C(C)C)C(=O)N[C@@H](Cc1c[nH]c2ccccc12)C(=O)N[C@@H](CCCCN)C(=O)N[C@H](CCCCN)C(=O)O` (H-[dK]AFYVVMWK[dK]-OH) has an Activity [3] of 44%.
